{
  "source": "paper PMC5007552",
  "about": "“The hVps34‐SGK3 pathway alleviates sustained PI3K/Akt inhibition by stimulating mTORC1 and tumour growth” (The EMBO Journal, 2016)",
  "system": "ZR-75-1 cells",
  "experiment": "NanoString human kinome mRNA quantification",
  "assay_type": "cell-based",
  "text": "Human mRNAs were hybridised to NanoString human kinome and control code sets, then subjected to quantification using NanoString software. […] To permit data compaction, and simple kinome‐wide comparisons, the fold changes are log2 transformed. […] Cell pellets were resuspended at a concentration of ~6,500 cells/μl in RLT buffer (Qiagen). […] For total copy numbers, triplicate normalised count values were averaged, and to calculate fold induction, means were divided by triplicate mean values from matched DMSO controls. P‐values were calculated using unpaired t‐test (GraphPad Prism software) by employing treated and control count data for each kinase mRNA.",
  "note": "Where “and” joins values, the source holds several entries; their conditions need not be identical. Equal entries are not always repeated.",
  "data": [
    {"smiles": "NC1(c2ccc(-c3nc4ccn5c(=O)[nH]nc5c4cc3-c3ccccc3)cc2)CCC1", "note": "[MK-2206]", "values": [
      {"measurement": "RYK normalised counts", "setting": "RYK mRNA, single replicates", "result": "1148.59 and 1139.68 and 1120.05"},
      {"measurement": "SBK1 normalised counts, average", "setting": "SBK1 mRNA, average of 3 replicates", "result": 361.503},
      {"measurement": "SBK1 normalised counts", "setting": "SBK1 mRNA, single replicates", "result": "371.43 and 336.09 and 376.99"},
      {"measurement": "SBK2 normalised counts, average", "setting": "SBK2 mRNA, average of 3 replicates", "result": 1.323},
      {"measurement": "SBK2 normalised counts", "setting": "SBK2 mRNA, single replicates", "result": "1.48 and 1 and 1.49"},
      {"measurement": "SCYL1 normalised counts, average", "setting": "SCYL1 mRNA, average of 3 replicates", "result": 556.557},
      {"measurement": "SCYL1 normalised counts", "setting": "SCYL1 mRNA, single replicates", "result": "560.49 and 556.75 and 552.43"},
      {"measurement": "SCYL2 normalised counts, average", "setting": "SCYL2 mRNA, average of 3 replicates", "result": 1373.8},
      {"measurement": "SCYL2 normalised counts", "setting": "SCYL2 mRNA, single replicates", "result": "1302.21 and 1441.13 and 1378.05"},
      {"measurement": "SCYL3 normalised counts, average", "setting": "SCYL3 mRNA, average of 3 replicates", "result": 629.833},
      {"measurement": "SCYL3 normalised counts", "setting": "SCYL3 mRNA, single replicates", "result": "586.85 and 664.48 and 638.17"},
      {"measurement": "SGK1 normalised counts, average", "setting": "SGK1 mRNA, average of 3 replicates", "result": 34.7533},
      {"measurement": "SGK1 normalised counts", "setting": "SGK1 mRNA, single replicates", "result": "45.11 and 34.64 and 24.51"},
      {"measurement": "SGK2 normalised counts, average", "setting": "SGK2 mRNA, average of 3 replicates", "result": 5.517},
      {"measurement": "SGK2 normalised counts", "setting": "SGK2 mRNA, single replicates", "result": "6.93 and 3.37 and 6.25"},
      {"measurement": "SGK3 normalised counts, average", "setting": "SGK3 mRNA, average of 3 replicates", "result": 345.983},
      {"measurement": "SGK3 normalised counts", "setting": "SGK3 mRNA, single replicates", "result": "345.97 and 349.13 and 342.85"},
      {"measurement": "SGK110 normalised counts, average", "setting": "SGK110 mRNA, average of 3 replicates", "result": 1},
      {"measurement": "SGK110 normalised counts", "setting": "SGK110 mRNA, single replicates", "result": 1},
      {"measurement": "SGK223 normalised counts, average", "setting": "SGK223 mRNA, average of 3 replicates", "result": 114.123},
      {"measurement": "SGK223 normalised counts", "setting": "SGK223 mRNA, single replicates", "result": "115.1 and 115.43 and 111.84"},
      {"measurement": "SGK494 normalised counts", "setting": "SGK494 mRNA, single replicates", "result": "270.07 and 276.17"},
      {"measurement": "SIK1 normalised counts, average", "setting": "SIK1 mRNA, average of 3 replicates", "result": 97.7933},
      {"measurement": "SIK1 normalised counts", "setting": "SIK1 mRNA, single replicates", "result": "92.37 and 96.32 and 104.69"},
      {"measurement": "SIK2 normalised counts, average", "setting": "SIK2 mRNA, average of 3 replicates", "result": 489.35},
      {"measurement": "SIK2 normalised counts", "setting": "SIK2 mRNA, single replicates", "result": "465.05 and 503.76 and 499.24"},
      {"measurement": "SIK3 normalised counts, average", "setting": "SIK3 mRNA, average of 3 replicates", "result": 191.663},
      {"measurement": "SIK3 normalised counts", "setting": "SIK3 mRNA, single replicates", "result": "213.27 and 183.2 and 178.52"},
      {"measurement": "SLK normalised counts, average", "setting": "SLK mRNA, average of 3 replicates", "result": 781.283},
      {"measurement": "SLK normalised counts", "setting": "SLK mRNA, single replicates", "result": "777.73 and 819.98 and 746.14"},
      {"measurement": "SNRK normalised counts", "setting": "SNRK mRNA, single replicates", "result": "215.99 and 274.58"},
      {"measurement": "SPEG normalised counts, average", "setting": "SPEG mRNA, average of 3 replicates", "result": 35.4833},
      {"measurement": "SPEG normalised counts", "setting": "SPEG mRNA, single replicates", "result": "26.93 and 40.72 and 38.8"},
      {"measurement": "SRC normalised counts, average", "setting": "SRC mRNA, average of 3 replicates", "result": 1093.13},
      {"measurement": "SRC normalised counts", "setting": "SRC mRNA, single replicates", "result": "1115.87 and 1045.86 and 1117.67"},
      {"measurement": "SRMS normalised counts, average", "setting": "SRMS mRNA, average of 3 replicates", "result": 3.94},
      {"measurement": "SRMS normalised counts", "setting": "SRMS mRNA, single replicates", "result": "1.48 and 2.5 and 7.84"},
      {"measurement": "SRPK1 normalised counts, average", "setting": "SRPK1 mRNA, average of 3 replicates", "result": 1401.66},
      {"measurement": "SRPK1 normalised counts", "setting": "SRPK1 mRNA, single replicates", "result": "1439.46 and 1380.32 and 1385.2"},
      {"measurement": "SRPK3 normalised counts, average", "setting": "SRPK3 mRNA, average of 3 replicates", "result": 7.937},
      {"measurement": "SRPK3 normalised counts", "setting": "SRPK3 mRNA, single replicates", "result": "8.75 and 11.19 and 3.87"},
      {"measurement": "STK3 normalised counts, average", "setting": "STK3 mRNA, average of 3 replicates", "result": 371.33},
      {"measurement": "STK3 normalised counts", "setting": "STK3 mRNA, single replicates", "result": "336.89 and 406.46 and 370.64"},
      {"measurement": "STK10 normalised counts, average", "setting": "STK10 mRNA, average of 3 replicates", "result": 433.017},
      {"measurement": "STK10 normalised counts", "setting": "STK10 mRNA, single replicates", "result": "449.6 and 416.89 and 432.56"},
      {"measurement": "STK11 normalised counts, average", "setting": "STK11 mRNA, average of 3 replicates", "result": 800.127},
      {"measurement": "STK11 normalised counts", "setting": "STK11 mRNA, single replicates", "result": "804.09 and 773.94 and 822.35"},
      {"measurement": "STK16 normalised counts, average", "setting": "STK16 mRNA, average of 3 replicates", "result": 424.973},
      {"measurement": "STK16 normalised counts", "setting": "STK16 mRNA, single replicates", "result": "430.51 and 422.97 and 421.44"},
      {"measurement": "STK17A normalised counts, average", "setting": "STK17A mRNA, average of 3 replicates", "result": 614.85},
      {"measurement": "STK17A normalised counts", "setting": "STK17A mRNA, single replicates", "result": "623.21 and 605.4 and 615.94"},
      {"measurement": "STK17B normalised counts, average", "setting": "STK17B mRNA, average of 3 replicates", "result": 149.18},
      {"measurement": "STK17B normalised counts", "setting": "STK17B mRNA, single replicates", "result": "155.09 and 144.1 and 148.35"},
      {"measurement": "STK19 normalised counts, average", "setting": "STK19 mRNA, average of 3 replicates", "result": 156.807},
      {"measurement": "STK19 normalised counts", "setting": "STK19 mRNA, single replicates", "result": "145.09 and 157.13 and 168.2"},
      {"measurement": "STK24 normalised counts", "setting": "STK24 mRNA, single replicates", "result": 2291.16},
      {"measurement": "STK25 normalised counts, average", "setting": "STK25 mRNA, average of 3 replicates", "result": 893.797},
      {"measurement": "STK25 normalised counts", "setting": "STK25 mRNA, single replicates", "result": "868.63 and 899.91 and 912.85"},
      {"measurement": "STK31 normalised counts, average", "setting": "STK31 mRNA, average of 3 replicates", "result": 2.42},
      {"measurement": "STK31 normalised counts", "setting": "STK31 mRNA, single replicates", "result": "2.39 and 1 and 3.87"},
      {"measurement": "STK32A normalised counts, average", "setting": "STK32A mRNA, average of 3 replicates", "result": 1.637},
      {"measurement": "STK32A normalised counts", "setting": "STK32A mRNA, single replicates", "result": "1 and 1.63 and 2.28"},
      {"measurement": "STK32B normalised counts, average", "setting": "STK32B mRNA, average of 3 replicates", "result": 1.427},
      {"measurement": "STK32B normalised counts", "setting": "STK32B mRNA, single replicates", "result": "1 (2×) and 2.28"},
      {"measurement": "STK32C normalised counts, average", "setting": "STK32C mRNA, average of 3 replicates", "result": 205.643},
      {"measurement": "STK32C normalised counts", "setting": "STK32C mRNA, single replicates", "result": "188.41 and 219.8"},
      {"measurement": "STK33 normalised counts, average", "setting": "STK33 mRNA, average of 3 replicates", "result": 1.163},
      {"measurement": "STK33 normalised counts", "setting": "STK33 mRNA, single replicates", "result": "1 (2×) and 1.49"},
      {"measurement": "STK35 normalised counts, average", "setting": "STK35 mRNA, average of 3 replicates", "result": 342.25},
      {"measurement": "STK35 normalised counts", "setting": "STK35 mRNA, single replicates", "result": "336.89 and 343.04 and 346.82"},
      {"measurement": "STK38L normalised counts, average", "setting": "STK38L mRNA, average of 3 replicates", "result": 664.543},
      {"measurement": "STK38L normalised counts", "setting": "STK38L mRNA, single replicates", "result": "674.11 and 657.53 and 661.99"},
      {"measurement": "STK38 normalised counts, average", "setting": "STK38 mRNA, average of 3 replicates", "result": 732.567},
      {"measurement": "STK38 normalised counts", "setting": "STK38 mRNA, single replicates", "result": "697.74 and 733.98 and 765.98"},
      {"measurement": "STK39 normalised counts, average", "setting": "STK39 mRNA, average of 3 replicates", "result": 817.837},
      {"measurement": "STK39 normalised counts", "setting": "STK39 mRNA, single replicates", "result": "763.19 and 842.57 and 847.75"},
      {"measurement": "Normalised counts (single replicate)", "setting": "VRK3 mRNA", "result": "720.47 and 725.29 and 752.49"},
      {"measurement": "Normalised counts (single replicate)", "setting": "WEE2 mRNA", "result": "1.48 and 1.63 and 1.49"},
      {"measurement": "Normalised counts (single replicate)", "setting": "WNK1 mRNA", "result": "3425.55 and 3529.59 and 3400.03"},
      {"measurement": "Normalised counts (single replicate)", "setting": "WNK2 mRNA", "result": "345.97 and 335.23 and 337.29"},
      {"measurement": "Normalised counts (single replicate)", "setting": "WNK3 mRNA", "result": "30.56 and 30.3 and 37.21"},
      {"measurement": "Normalised counts (single replicate)", "setting": "WNK4 mRNA", "result": "5.11 and 1 and 4.66"},
      {"measurement": "Normalised counts (single replicate)", "setting": "YES1 mRNA", "result": "2809.27 and 2957.96 and 2943.56"},
      {"measurement": "Normalised counts (single replicate)", "setting": "YSK4 mRNA", "result": "1 (2×) and 1.49"},
      {"measurement": "Normalised counts (single replicate)", "setting": "ZAK mRNA", "result": "35.11 and 50.28 and 49.91"},
      {"measurement": "Normalised counts (single replicate)", "setting": "ZAP70 mRNA", "result": "1 (2×) and 1.63"},
      {"measurement": "rank of SGK3 mRNA among AGC kinases", "setting": "ZR-75-1, DMSO vehicle 29th", "result": 12}
    ]}
  ]
}
